Results reported in patent publication US9346820B2, “HIV-1 protease inhibitors having gem-di-fluoro bicyclic P2-ligands” (priority 2013, dated 2016).

Columns and labels:
[1] = Apparent BBB permeability coefficient, in vitro BBB model (BBB Kit); settings: rat and monkey
Procedure: (§1) The BBB Kit™ was kept at −80° C. until thawing on day 0 of the experiments. Nutritional medium was added to both brain and blood sides of the wells. This solution consists of DMEM F-12 medium with FCS 10% v/v, heparin 100 μg/ml, basic fibroblast growth factor (bFGF) 1.5 ng/ml, insulin 5 μg/ml, transferrin 5 μg/ml, sodium selenite 5 ng/ml, hydrocortisone 500 nM and gentamycin 50 μg/ml. Fresh medium was added 3 hours after thawing following the manufacturer's instructions, and 24 hours later. The plates were incubated at 37° C. until day 4 of the experiment when the condition of astrocytes was checked under a light microscope. Following this, the integrity of the collagen-coated membrane was verified by the measurement of the transendothelial electrical resistance (TEER) using an ohmmeter provided by the manufacturer. […] Detailed information regarding the components of the BBB Kit as well as its mechanisms can be seen by accessing the manufacturer's website http://www.pharmacocell.co.jp/en/bbb/index_e.html.
(§2) Standard curves were generated for each compound on a light spectrophotometer as previously described. 100 μM of each compound was added to the luminal (blood side) of the wells, incubated at 37° C. for 30 minutes and then, the amount of drug that crossed the in vitro BBB was collected and measured under a light spectrophotometer at 230 nanometer absorbances.
(§3) Papp was calculated using the following mathematical formula: […]
(§4) This model (BBB Kit™) is thought to represent an in vitro BBB model for drug transport assays, permitting an adequate cross-talk of the cell lines involved and provide a way to test an apparent passage of small molecules across the BBB as previously described by Nakagawa et al. (41). […] The concentrations of each compound that permeated into the abluminal interface (termed “brain side”) were determined using a spectrophotometer, 30 min after the addition of each drug to the wells.
(§5) The mathematical formula used for the calculation of Papp is described in Materials and Methods.

[2] = system: triple culture of rat-derived astrocytes, pericytes and monkey-derived endothelial cells; assay: as above; settings: 100 μM on luminal (blood) side, 30 min, brain side measured at 230 nm
Procedure: as §1, §2, §3, §4, §5

HIV-1LAI = assay: Antiviral activity of brain-side medium from the BBB assay, MTT assay in MT-2 cells; assay type: cell-based; settings: HIV-1LAI
Procedure: The “brain-side” of the medium containing a compound collected in the BBB in vitro assay, was subjected to antiviral assays. Two HIV-1 isolates were employed, HIV-1LAI (Panel A) and HIV-1ERS104pre (Panel B). […] Dilution ranges were between 10-fold and 10,000-fold, and the percentage of viral inhibition was used as an endpoint. […] Assays were conducted in duplicate and error bars show standard deviations.
The assay was carried out using 10, 100, 1000 and 10000 times-diluted brain-side stocks of compounds.

[3] = Cytotoxicity (CC50), MTT assay; assay type: cell-based; settings: human; 50% cytotoxicity; read-out: CC50
Procedure: The susceptibility of HIV-1LAI to various drugs was determined as previously described with minor modifications. Briefly, MT-2 cells (10^4/ml) were exposed to 100 50% tissue culture infectious doses (TCID50) of HIV-1LAI in the presence or absence of various concentrations of drugs in 96-well microculture plates and were incubated at 37° C. for 7 days. After 100 μl of the medium was removed from each well, 3-(4,5-dimetylthiazol-2-yl)-2,5-diphenyltetrazolium bromide (MTT) solution (10 μl, 7.5 mg/ml in phosphate-buffered saline) was added to each well in the plate, followed by incubation at 37° C. for 2 h. […] All assays were performed in duplicate or triplicate. […] In determining the drug susceptibility of certain laboratory HIV-1 strains, MT-4 cells were employed as target cells as previously described with minor modifications. In brief, MT-4 cells (10^5/ml) were exposed to 100 TCID50 of drug-resistant HIV-1 strains in the presence or absence of various concentrations of drugs and were incubated at 37° C. On day 7 of culture, the supernatants were harvested and the amounts of p24 Gag protein were determined by using a fully automated chemiluminescent enzyme immunoassay system (Lumipulse F: Fujirebio Inc., Tokyo). […] All assays were performed in duplicate or triplicate. PHA-PBMs were derived from a single donor in each independent experiment. Thus, for obtaining the data, three different donors were recruited.

HIV-1ERS104pre = assay: p24 Gag production inhibition in PHA-PBMs, wild-type clinical isolate; assay type: cell-based; settings: Human immunodeficiency virus 1; PHA-PBMs, p24 Gag endpoint; read-out: EC50 HIV-1ERS104pre (X4)
Procedure: (§6) All primary HIV-1 strains were passaged once or twice in 3-day-old phytohemagglutinin activated peripheral blood mononuclear cells (PHA-PBM), and the culture supernatants were stored at −80° C. until use.
(§7) The susceptibility of HIV-1LAI to various drugs was determined as previously described with minor modifications. Briefly, MT-2 cells (10^4/ml) were exposed to 100 50% tissue culture infectious doses (TCID50) of HIV-1LAI in the presence or absence of various concentrations of drugs in 96-well microculture plates and were incubated at 37° C. for 7 days. After 100 μl of the medium was removed from each well, 3-(4,5-dimetylthiazol-2-yl)-2,5-diphenyltetrazolium bromide (MTT) solution (10 μl, 7.5 mg/ml in phosphate-buffered saline) was added to each well in the plate, followed by incubation at 37° C. for 2 h. […] All assays were performed in duplicate or triplicate. […] To determine the sensitivity of primary HIV-1 isolates to drugs, phytohemagglutinin-stimulated peripheral blood mononuclear cells (PHA-PBMC) (10^6/ml) were exposed to 50 TCID50 of each primary HIV-1 isolate and cultured in the presence or absence of various concentrations of drugs in 10-fold serial dilutions in 96-well microculture plates. In determining the drug susceptibility of certain laboratory HIV-1 strains, MT-4 cells were employed as target cells as previously described with minor modifications. In brief, MT-4 cells (10^5/ml) were exposed to 100 TCID50 of drug-resistant HIV-1 strains in the presence or absence of various concentrations of drugs and were incubated at 37° C. On day 7 of culture, the supernatants were harvested and the amounts of p24 Gag protein were determined by using a fully automated chemiluminescent enzyme immunoassay system (Lumipulse F: Fujirebio Inc., Tokyo). […] All assays were performed in duplicate or triplicate. PHA-PBMs were derived from a single donor in each independent experiment. Thus, for obtaining the data, three different donors were recruited.

HIV-1MDR/B = assay: microbe, parasite or virus in culture; assay type: cell-based; settings: Human immunodeficiency virus 1, read-out: EC50 HIV-1MDR/B (X4)
Procedure: as §6, §7

HIV-1MDR/C = assay: microbe, parasite or virus in culture; assay type: cell-based; settings: Human immunodeficiency virus 1, read-out: EC50 HIV-1MDR/C (X4)
Procedure: as §6, §7

HIV-1MDR/G = assay: microbe, parasite or virus in culture; assay type: cell-based; settings: Human immunodeficiency virus 1, read-out: EC50 HIV-1MDR/G (X4)
Procedure: as §6, §7

HIV-1MDR/JSL = assay: microbe, parasite or virus in culture; assay type: cell-based; settings: Human immunodeficiency virus 1, read-out: EC50 HIV-1MDR/JSL (R5)
Procedure: as §6, §7

HIV-1MDR/MM = assay: microbe, parasite or virus in culture; assay type: cell-based; settings: Human immunodeficiency virus 1, read-out: EC50 HIV-1MDR/MM (R5)
Procedure: as §6, §7

HIV-1MDR/TM = assay: microbe, parasite or virus in culture; assay type: cell-based; settings: Human immunodeficiency virus 1, read-out: EC50 HIV-1MDR/TM (X4)
Procedure: as §6, §7

HIV-1NL4-3 = assay: p24 Gag production inhibition in MT-4 cells, wild-type laboratory strain; assay type: cell-based; settings: Human immunodeficiency virus 1, MT4; MT-4 cells, p24 Gag endpoint; read-out: EC50 HIV-1NL4-3
Procedure: as §7

HIV-1APV^R5μM = assay: microbe, parasite or virus in culture; assay type: cell-based; settings: Human immunodeficiency virus 1, MT4, read-out: EC50 HIV-1APV^R5μM
Procedure: as §7

HIV-1ATV^R5μM = assay: microbe, parasite or virus in culture; assay type: cell-based; settings: Human immunodeficiency virus 1, MT4, read-out: EC50 HIV-1ATV^R5μM
Procedure: as §7

HIV-1LPV^R5μM = assay: microbe, parasite or virus in culture; assay type: cell-based; settings: Human immunodeficiency virus 1, MT4, read-out: EC50 HIV-1LPV^R5μM
Procedure: as §7

HIV-1SQV^R5μM = assay: microbe, parasite or virus in culture; assay type: cell-based; settings: Human immunodeficiency virus 1, MT4, read-out: EC50 HIV-1SQV^R5μM
Procedure: as §7

HIV-1GRL04810^RP18 = assay: microbe, parasite or virus in culture; assay type: cell-based; settings: Human immunodeficiency virus 1, MT4, read-out: EC50 HIV-1GRL04810^RP18
Procedure: as §7
(§8) The amounts of p24 were measured every two days for up to 7 days.

HIV-1GRL05010^RP10 = assay: microbe, parasite or virus in culture; assay type: cell-based; settings: Human immunodeficiency virus 1, MT4, read-out: EC50 HIV-1GRL05010^RP10
Procedure: as §7, §8

[4] = system: HIV-1GRL-04810^RP18, and HIV-1GRL-05010^RP10; assay: p24 assay, the two GRL-selected variants taken together; assay type: cell-based; settings: Human immunodeficiency virus 1, read-out: EC50 values against HIV-1GRL-04810^RP18 and HIV-1GRL-05010^RP10
Procedure: as §7

## Cn1c(=O)c2c(ncn2C)n(C)c1=O [caffeine]
[1]
  Papp at 30 min, 100 μM: 100 ×10⁻⁶ cm/s
[2]
  Final abluminal tracer concentration: 6.60 µM

## CC(C)(C)NC(=O)[C@@H]1CN(Cc2cccnc2)CCN1C[C@@H](O)C[C@@H](Cc1ccccc1)C(=O)N[C@H]1c2ccccc2C[C@H]1O [IDV, Indinavir]
HIV-1LAI
  suppression levels of brain-side preparations compared (FIG. 5A): less than those of GRL-04810^brain and GRL-05010^brain

## CC(C)CN(C[C@@H](O)[C@H](Cc1ccccc1)NC(=O)O[C@H]1CCOC1)S(=O)(=O)c1ccc(N)cc1 [APV, Amprenavir]
[3]
  CC50 at 7 days: > 100 µM
HIV-1ERS104pre
  EC50: 0.0295 µM
HIV-1MDR/B
  EC50: 0.49 µM
HIV-1MDR/C
  EC50: 0.21 µM
HIV-1MDR/G
  EC50: 0.31 µM
HIV-1MDR/JSL
  EC50: 0.63 µM
HIV-1MDR/MM
  EC50: 0.27 µM
HIV-1MDR/TM
  EC50: 0.328 µM
HIV-1NL4-3
  EC50: 0.081 µM
HIV-1APV^R5μM
  EC50: > 1 µM
HIV-1ATV^R5μM
  EC50: > 1 µM
HIV-1LPV^R5μM
  EC50: 0.033 µM
HIV-1SQV^R5μM
  EC50: 0.435 µM
HIV-1GRL04810^RP18
  EC50: > 1 µM
HIV-1GRL05010^RP10
  EC50: > 1 µM
[4]
  EC50: > 1 µM

## Cc1cccc(C)c1OCC(=O)N[C@@H](Cc1ccccc1)[C@@H](O)C[C@H](Cc1ccccc1)NC(=O)[C@H](C(C)C)N1CCCNC1=O [LPV, Lopinavir]
[3]
  CC50 at 7 days: 26.8 ± 0.9 µM
HIV-1ERS104pre
  EC50: 0.033 µM
HIV-1MDR/JSL
  EC50: > 1 µM
HIV-1NL4-3
  EC50: 0.035 µM
HIV-1LPV^R5μM
  EC50: > 1 µM
